Laboratory results published in patent publication US20260137706A1, “METHODS OF TREATING INFLAMMATORY DISEASES” (INTERLINE THERAPEUTICS, INC., priority 2023, published 2026).

Tests used:
[1] = biological target: T1, binding of His-XIAP(BIR2)-avi fusion protein to GST-RIPK2 fusion protein (RIPK2/XIAP) (Homo sapiens, UniProt O43353); assay: RIPK2-XIAP binding competition PPI assay (TR-FRET); conditions: RIPK2/XIAP binding competition PPI assay; for Emax: Amax, read-out: PPI Amax bin; for IC50: read-out: PPI IC50 bin
T1 construct: made in house; host or cells: baculovirus infected Sf9 cells
Method in brief: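 Compounds (in DMSO, 100-fold stock) incubated 120 min at 23 °C with 1 nM GST-RIPK2 (aa 1-310) and 25 nM His-XIAP(BIR2 aa 152-231)-avi, plus anti-His-XL665 and anti-GST-Tb, in pH 7.5 Tris buffer. Read-out: 665/520 nm emission ratio. Normalized to no-inhibitor (0%) and 50 nM GSK583 (−100%); Amax binned A–D.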

[2] = biological target: T2, GST-RIPK2 fusion protein (human RIPK2, amino acids 1-310) (Homo sapiens, UniProt O43353); assay: RIPK2 binding competition assay (TR-FRET, Tracer 199 displacement); conditions: 10 nM Tracer 199, 1 nM GST-RIPK2, read-out: RIPK2 IC50
T2 construct: made in house; host or cells: baculovirus infected Sf9 cells
Method in brief: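 GST-RIPK2 (human aa 1-310, Sf9-expressed; final 1 nM) with Tracer 199 (final 10 nM) and Tb-anti-GST (final 0.5 nM) in Tris pH 7.5 buffer, 45 min at 22 °C. TR-FRET 665/620 nm ratio after 337 nm excitation; normalized to no-inhibitor (0%) and no-protein (−100%), giving IC50.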

[3] = tested on: NF-κB pathway (SEAP) in THP1-Dual cells; assay: THP-1 Dual cell SEAP assay (L18-MDP stimulated); assay type: cell-based; conditions: Homo sapiens, THP1-Dual, read-out: NF-κB THP1 IC50 bin
Method in brief: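 THP1-Dual cells (~25,000/well) were preincubated 30 min with serially diluted compounds, then stimulated with 10 ng/mL L18-MDP (final) for 20-24 h at 37 °C. Supernatant SEAP was read with QUANTI-Blue at OD 620-655 nm after 2 h. IC50 came from non-linear fits of % inhibition versus DMSO/L18-MDP controls after media-blank subtraction.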

T1 sequence (O43353 1-310 limits assumed): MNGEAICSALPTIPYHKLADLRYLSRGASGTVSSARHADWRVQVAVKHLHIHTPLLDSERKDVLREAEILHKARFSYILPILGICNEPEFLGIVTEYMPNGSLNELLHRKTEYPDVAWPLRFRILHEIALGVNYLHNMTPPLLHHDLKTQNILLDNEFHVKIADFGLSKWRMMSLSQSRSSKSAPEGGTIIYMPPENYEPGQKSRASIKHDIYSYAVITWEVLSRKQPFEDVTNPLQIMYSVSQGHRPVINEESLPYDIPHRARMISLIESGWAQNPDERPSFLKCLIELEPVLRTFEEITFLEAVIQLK
T2 sequence (O43353 1-310): as the sequence (O43353 1-310 limits assumed) above

| SMILES | Emax [1] | IC50 [1] | IC50 [2] | IC50 [3] |
| --- | --- | --- | --- | --- |
| C[C@H](CO)COc1cc2ncc(-c3cc(F)c(N)nc3F)n2cc1S(=O)(=O)C(C)(C)C [Example 176, (R)-3-((3-(6-amino-2,5-difluoropyridin-3-yl)-6-(tert-butylsulfonyl)imidazo[1,2-a]pyridin-7-yl)oxy)-2-methylpropan-1-ol] | > 80% | 0.001 to 0.0025 µM | 0.001 to 0.0025 µM | 0.05 to 0.25 µM |
| CC(C)(C)S(=O)(=O)c1cn2c(-c3cnc4ccnn4c3)cnc2cc1OCCO [Example 221, 2-((6-(tert-butylsulfonyl)-3-(pyrazolo[1,5-a]pyrimidin-6-yl)imidazo[1,2-a]pyridin-7-yl)oxy)ethan-1-ol] | > 80% | > 0.02 µM | > 0.02 µM | > 1 µM |
| CC(C)(C)C(C)(O)c1cn2c(-c3cc(F)c(N)nc3F)cnc2cc1OCCO (centres unmarked) [Example 189, 2-(3-(6-amino-2,5-difluoropyridin-3-yl)-7-(2-hydroxyethoxy)imidazo[1,2-a]pyridin-6-yl)-3,3-dimethylbutan-2-ol] |  | > 0.02 µM | > 0.02 µM | > 1 µM |
| OCCCNc1cc(-c2cnc3ccc(C(F)(F)F)cn23)cc(F)n1 [Example 5, 3-((6-fluoro-4-(6-(trifluoromethyl)imidazo[1,2-a]pyridin-3-yl)pyridin-2-yl)amino)propan-1-ol] | < 30% | > 0.02 µM | > 0.02 µM | 0.25 to 1 µM |
| COc1cc2ncc(-c3cccc(NS(=O)(=O)C4CCN(C(=O)OC(C)(C)C)C4)c3)n2cc1S(=O)(=O)C(C)(C)C (centres unmarked) [Example 153, tert-butyl 3-(N-(3-(6-(tert-butylsulfonyl)-7-methoxyimidazo[1,2-a]pyridin-3-yl)phenyl)sulfamoyl)pyrrolidine-1-carboxylate] | > 80% | > 0.02 µM | 0.0025 to 0.02 µM | > 1 µM |
| COc1cc2ncc(-c3cnc4c(c3)NCCO4)n2cc1S(=O)(=O)C(C)(C)C [Example 82, 7-(6-(tert-butylsulfonyl)-7-methoxyimidazo[1,2-a]pyridin-3-yl)-2,3-dihydro-1H-pyrido[2,3-b][1,4]oxazine] | < 30% | > 0.02 µM | > 0.02 µM | > 1 µM |
| COc1cc2ncc(-c3cnc4nc(N)ccc4c3)n2cc1S(=O)(=O)C(C)(C)C [Example 91, 6-(6-(tert-butylsulfonyl)-7-methoxyimidazo[1,2-a]pyridin-3-yl)-1,8-naphthyridin-2-amine] | 30 to 55% | > 0.02 µM | > 0.02 µM | > 1 µM |
| CC(C)(C)S(=O)(=O)c1cn2c(-c3cnc4[nH]nnc4c3)cnc2cc1OCCO [Example 231, 2-((3-(3H-[1,2,3]triazolo[4,5-b]pyridin-6-yl)-6-(tert-butylsulfonyl)imidazo [1,2-a]pyridin-7-yl)oxy)ethan-1-ol] | 30 to 55% | > 0.02 µM | > 0.02 µM | > 1 µM |
| COc1cc2ncc(-c3cc(F)c(N)nc3F)n2cc1S(=O)(=O)C1(C)CC1 [Example 68, 3,6-difluoro-5-(7-methoxy-6-((1-methylcyclopropyl)sulfonyl)imidazo[1,2-a]pyridin-3-yl)pyridin-2-amine] | > 80% | > 0.02 µM | > 0.02 µM | > 1 µM |
| COc1cc2ncc(-c3cc(F)c(OC)c(NS(=O)(=O)c4cccnc4)c3)n2cc1S(=O)(=O)C(C)(C)C [Example 141, N-(5-(6-(tert-butylsulfonyl)-7-methoxyimidazo[1,2-a]pyridin-3-yl)-3-fluoro-2-methoxyphenyl)pyridine-3-sulfonamide] | > 80% | < 0.001 µM | < 0.001 µM | < 0.05 µM |
| CC(C)(C)S(=O)(=O)c1cn2c(-c3cc(F)c(N)nc3F)cnc2cc1OC1CCN(CCO)C1 (centres unmarked) [Example 43, 2-(3-((3-(6-amino-2,5-difluoropyridin-3-yl)-6-(tert-butylsulfonyl)imidazo[1,2-a]pyridin-7-yl)oxy)pyrrolidin-1-yl)ethan-1-ol] | > 80% | 0.0025 to 0.02 µM | 0.0025 to 0.02 µM | > 1 µM |
| CC(C)(O)COc1cc2ncc(-c3cc(F)c(N)nc3F)n2cc1S(=O)(=O)C(C)(C)C [Example 28, 1-((3-(6-amino-2,5-difluoropyridin-3-yl)-6-(tert-butylsulfonyl)imidazo[1,2-a]pyridin-7-yl)oxy)-2-methylpropan-2-ol] | > 80% | 0.0025 to 0.02 µM | 0.001 to 0.0025 µM | 0.05 to 0.25 µM |
| COc1cc2ncc(-c3cc(F)c(OC)c4[nH]ncc34)n2cc1S(=O)(=O)C(C)(C)C [Example 120, 4-(6-(tert-butylsulfonyl)-7-methoxyimidazo[1,2-a]pyridin-3-yl)-6-fluoro-7-methoxy-1H-indazole] | 55 to 80% | 0.0025 to 0.02 µM | 0.0025 to 0.02 µM | > 1 µM |
| C[C@H](CO)COc1cc2ncc(-c3cc(Cl)c(N)nc3F)n2cc1S(=O)(=O)C(C)(C)C [Example 198, (R)-3-((3-(6-amino-5-chloro-2-fluoropyridin-3-yl)-6-(tert-butylsulfonyl)imidazo [1,2-a]pyridin-7-yl)oxy)-2-methylpropan-1-ol] | > 80% | < 0.001 µM | 0.001 to 0.0025 µM | 0.05 to 0.25 µM |
| COc1cc2ncc(-c3cnn4ccccc34)n2cc1S(=O)(=O)C(C)(C)C [Example 112, 6-(tert-butylsulfonyl)-7-methoxy-3-(pyrazolo[1,5-a]pyridin-3-yl)imidazo[1,2-a]pyridine] | < 30% | > 0.02 µM | > 0.02 µM | > 1 µM |
| CCS(=O)(=O)Nc1cc(-c2cnn3cc(OC)c(N4C(=O)OCC4(C)C)nc23)cc(F)c1OC [Example 131, N-(5-(5-(4,4-dimethyl-2-oxooxazolidin-3-yl)-6-methoxypyrazolo[1,5-a]pyrimidin-3-yl)-3-fluoro-2-methoxyphenyl)ethanesulfonamide] | > 80% | 0.0025 to 0.02 µM | 0.0025 to 0.02 µM | 0.25 to 1 µM |
| COc1cc2ncc(-c3cc(N)cc4[nH]ncc34)n2cc1S(=O)(=O)C(C)(C)C [Example 7, 4-[7-Methoxy-6-(2-methylpropane-2-sulfonyl)imidazo[1,2-a]pyridin-3-yl]-1H-indazol-6-amine] | 30 to 55% | > 0.02 µM | > 0.02 µM | > 1 µM |
| CC(C)(C)S(=O)(=O)c1cn2c(-c3cc(F)c(N)nc3F)cnc2cc1OCC(F)(F)CN [Example 202, 5-(7-(3-amino-2,2-difluoropropoxy)-6-(tert-butylsulfonyl)imidazo [1,2-a]pyridin-3-yl)-3,6-difluoropyridin-2-amine] | > 80% | 0.001 to 0.0025 µM | 0.001 to 0.0025 µM | 0.05 to 0.25 µM |
| COc1cc2ncc(-c3cc(NS(=O)(=O)c4cnn(C)c4)c(OC)c(OC)c3)n2cc1S(=O)(=O)C(C)(C)C [Example 244, N-(5-(6-(tert-butylsulfonyl)-7-methoxyimidazo[1,2-a]pyridin-3-yl)-2,3-dimethoxyphenyl)-1-methyl-1H-pyrazole-4-sulfonamide] | > 80% | < 0.001 µM | 0.001 to 0.0025 µM | < 0.05 µM |
| COc1c(F)cc(-c2cnn3cc(OCCO)c(S(=O)(=O)C(C)(C)C)cc23)cc1NS(=O)(=O)c1cnn(C)c1 [Example 226, N-(5-(5-(tert-butylsulfonyl)-6-(2-hydroxyethoxy)pyrazolo [1,5-a]pyridin-3-yl)-3-fluoro-2-methoxyphenyl)-1-methyl-1H-pyrazole-4-sulfonamide] | > 80% | < 0.001 µM | < 0.001 µM | < 0.05 µM |
| COc1cc2ncc(-c3ccn4nccc4c3)n2cc1S(=O)(=O)C(C)(C)C [Example 94, 6-(tert-butylsulfonyl)-7-methoxy-3-(pyrazolo[1,5-a]pyridin-5-yl)imidazo[1,2-a]pyridine] | < 30% | > 0.02 µM | 0.0025 to 0.02 µM | 0.25 to 1 µM |
| CCCS(=O)(=O)Nc1cc(-c2cnc3cc(OC)c(S(=O)(=O)C(C)(C)C)cn23)cc(-n2cccn2)c1 [Example 81, N-(3-(6-(tert-butylsulfonyl)-7-methoxyimidazo[1,2-a]pyridin-3-yl)-5-(1H-pyrazol-1-yl)phenyl)propane-1-sulfonamide] | < 30% | > 0.02 µM | 0.001 to 0.0025 µM | 0.25 to 1 µM |
| COc1cc2ncc(-c3cc(F)c(N)nc3F)n2cc1S(=O)(=O)c1cn[nH]c1 [Example 78, 5-(6-((1H-pyrazol-4-yl)sulfonyl)-7-methoxyimidazo[1,2-a]pyridin-3-yl)-3,6-difluoropyridin-2-amine] | > 80% | 0.0025 to 0.02 µM | 0.0025 to 0.02 µM | > 1 µM |
| COc1cc2ncc(-c3ccc4c(c3)c(C)nn4C)n2cc1S(=O)(=O)C(C)(C)C [Example 101, 5-(6-(tert-butylsulfonyl)-7-methoxyimidazo[1,2-a]pyridin-3-yl)-1,3-dimethyl-1H-indazole] | < 30% | > 0.02 µM | 0.0025 to 0.02 µM | > 1 µM |
